Values joined by “and” are separate entries in the source; they are usually repeats but may differ in a detail not shown here. Equal entries are not always repeated. Ends that are not written are not given here. Peptide text beside a SMILES is read from it.
What was measured:
[1] = biological target: human PAR2 on Flp-In CHO-hPAR2 cells (human) (UniProt P55085); experiment: time-resolved fluorescence competition binding on cells (Eu-tagged ligand, DELFIA); CHO-hPAR2 cells in 384-well plates, blocked with 2% BSA; Eu-tagged-2f-LIGRLO(dtpa)-NH2 300 nM together with competitor for 15 min; washed; DELFIA Enhancement Solution
[2] = biological target: T1, beta-tryptase (uniprot P20231) (Homo sapiens, UniProt P20231); experiment: Tryptase enzyme activity assay; assay type: biochemical; conditions: 10 µM, n=1
T1 construct: made in house; host or cells: Pichia pastoris
Procedure: Tryptase Enzyme Activity Assay. The tryptase assay was carried out using beta-tryptase (uniprot P20231) produced in Pichia pastoris and using Tos-Gly-Pro-Lys-pNA as substrate (25 mM stock in ethanol) in 100 mM Tris pH 8.0, 100 mM NaCl, 10% glycerol, 0.5 mg mL-1 BSA, 0.1% DDM. Substrate (250 µM) was pre-incubated with test compound (10 µM) in assay buffer (200 ul) in clear bottom 96 well Greiner plates at room temperature. The re action was started by the addition of tryptase to a final concentration of 4.7 nM. Co nversion was recorded in a plate reader by monitoring the increase of absorption at λ = 405 nm over time. Activity was determined by linear fit of initial rate.

hPAR2 [3] = biological target: T2, hPAR2 (Homo sapiens, UniProt P55085); experiment: Radiolabelled competition binding assay against [^3H]-GB110 on HEKexpi293F membranes; set-up: expressed in transfected cells
T2 sequence (P55085 26-397): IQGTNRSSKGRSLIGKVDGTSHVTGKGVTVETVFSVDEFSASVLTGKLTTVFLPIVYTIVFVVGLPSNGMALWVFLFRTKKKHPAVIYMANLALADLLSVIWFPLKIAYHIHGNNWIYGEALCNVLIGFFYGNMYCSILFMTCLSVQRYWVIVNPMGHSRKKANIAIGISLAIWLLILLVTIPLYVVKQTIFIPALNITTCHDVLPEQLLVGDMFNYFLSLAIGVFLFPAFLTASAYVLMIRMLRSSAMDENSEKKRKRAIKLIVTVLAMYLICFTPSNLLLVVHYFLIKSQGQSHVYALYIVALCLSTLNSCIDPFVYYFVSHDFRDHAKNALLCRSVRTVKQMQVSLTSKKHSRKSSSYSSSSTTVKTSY
Procedure: The reaction was then filtered through 0.5% PEI-coated filter plates using a BiomekFX. The filter plate was then dried for 1 h at 50 °C. Scintillation fluid was added to each well, before reading the plate in a Microbeta reader.
(§1) Binding data were analysed using the One site – Fit Ki model in GraphPad Prism 8 (GraphPad Software) to determine binding affinity. Pharmacology in vitro potency data was analysed with a 4-parameter logistic fit using the equation y = Bottom + (Top − Bottom)/[…] where y is the response, x is the 10-logarithm of the drug concentration, Bottom is no response and Top is full response in GraphPad Prism 8 or Genedata Screener (Genedata). pEC50 and pIC50 data are presented as mean ± standard error of the mean (s.e.m.) derived from the number of independent experiments stated. Schild slope analysis was calculated using Graphpad Prism 8 Gaddum/Schild EC50 global fitting (shared model parameters between all data sets) competitive model. The most rigorous method for quantifying agonist-antagonist interactions is to globally fit the Gaddum/Shild model to all agonist dose–response curves. Schild slope quantifies the shifts in agonist response in the presence of antagonist, a Schild slope of 1 indicates the antagonist is competitive and extra-sum-of-squares F-test (p < 0.05) was used to compare the calculated Schild slope against a hypothetical Schild slope of 1. […] The relative activity was calculated using (EmaxEC50’)/(Emax’EC50) with the Hill slope help constant at 1. EC50’ and Emax’ denote the EC50 and Emax in the absence of allosteric modulator, while EC50 and Emax denote those measured in the presence of allosteric modulator. When the Hill slope = 1, the relative activity plot approaches an asymptote corresponding to the estimate of the γ value.

hPAR2 [4] = biological target: T2, hPAR2; experiment: IP1 assay, agonist mode, 1321N1-hPAR2 cells; assay type: cell-based
hPAR2 [5] = biological target: T2, hPAR2; experiment: β-arrestin-2 recruitment, agonist mode, U2OS-hPAR2 cells; assay type: cell-based
hPAR2 [6] = biological target: T2, hPAR2; experiment: Ca^2+ flux assay, agonist mode, 1321N1-hPAR2 cells; assay type: cell-based; conditions: for Ca2+ response (Fig 2c), individual replicate values: hPAR2
Procedure: Cells were loaded with Fluo-8 NW calcium dye (AAT Bioquest) for 30 min at 37 °C before compounds in Hank’s balanced salt solution (HBSS, ThermoFisher Scientific) with 20 mM HEPES (ThermoFisher Scientific), 0.1% bovine serum albumin (BSA, Sigma) and 0.5% DMSO were added and simultaneously evaluated for changes in intracellular [Ca^2+] using FLIPR TETRA (Molecular Devices) to detect agonism. For each concentration, the difference between the maximum peak Ca^2+ response and baseline response is reported. […] Antagonism experiments were also carried out on 1321N1-PAR2[WT], 1321N1-PAR2[F154A], and 1321N1-PAR2[G157C] as described. Experiments with trypsin in 1321N1-hPAR2 cells were performed in the presence of 1 µM Vorapaxar (Chemtronica) to remove any interference of PAR1 activity. […] Antagonism experiments for CHO-hPAR2 and HT-29 cells were performed in 96-well plates at 30,000 cells/well. Cells were loaded with Fluo-3 AM calcium dye (Sigma-Aldrich) for 60 min at 37 °C in HBSS with 1% FBS, 0.2% pluronic acid, 20 mM HEPES and 2.5 mM probenecid prior to the addition of antagonist. The antagonist was pre-incubated for 60 min at 37 °C followed by the addition of bovine trypsin (30 nM) at EC80. Intracellular [Ca^2+] flux was measured using FLIPR TETRA (Molecular Devices) and the difference between the maximum peak Ca^2+ response and baseline response is reported.
as §1, with “The most rigorous method for quantifying agonist-antagonist interactions is to globally fit the Gaddum/Shild model to all agonist dose–response curves.” left out

hPAR2 [7] = biological target: T2, hPAR2; experiment: pERK1/2 assay, agonist mode, U2OS-hPAR2 cells; assay type: cell-based
[8] = biological target: human protease-activated receptor-2 (PAR2) in membranes of HEKexpi293F cells (human, UniProt P55085 26-397); experiment: radioligand binding; competition against [3H]-GB110 (25 nM) on membranes (30 µg protein per well) of HEKexpi293F cells expressing human PAR2; 2 h at room temperature; filtration; One site - Fit Ki model; conditions: one partner purified

T1 sequence (P20231 31-275): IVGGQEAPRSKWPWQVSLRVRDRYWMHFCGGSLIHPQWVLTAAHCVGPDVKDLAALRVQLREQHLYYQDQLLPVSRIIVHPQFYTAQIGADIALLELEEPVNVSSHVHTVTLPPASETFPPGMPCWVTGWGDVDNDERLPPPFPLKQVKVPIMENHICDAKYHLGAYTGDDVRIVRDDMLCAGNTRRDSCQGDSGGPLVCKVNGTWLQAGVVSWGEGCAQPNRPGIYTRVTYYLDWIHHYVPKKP

Molecule: 2f-LIGRLO-NH2 (peptide)
- pKA (equilibrium dissociation constant of the orthosteric ligand) [1]: 6.1 pKA

Molecule: N=C(N)Nc1ccc(C(=O)Oc2ccc([N+](=O)[O-])cc2)cc1 [4-nitrophenyl-4-guanidinobenzoate, reference compound]
- inhibition of tryptase activity [2]: completely

Molecule: CC[C@H](C)[C@H](NC(=O)[C@H](CC(C)C)NC(=O)[C@@H](N)CO)C(=O)NCC(=O)N[C@@H](CCCCN)C(=O)N[C@H](C(N)=O)C(C)C [SLIGKV-NH2, reference compound] (H-SLIGKV-NH2)
- Ki (hPAR2 [3]): 0.468 µM
- remaining binding at […] (hPAR2 [3]; 2 h, read-out: specific binding of [^3H]-GB110, Fig 2b source data): 100% and 94.6%
- EC50 (hPAR2 [4]): 25.1 µM
- EC50 (hPAR2 [5]): 12.6 µM
- agonist response (Fig 2f), individual replicate values (hPAR2 [5]; [compound],M -4.04576): 97.3808 and 92.2809 and 86.7862 and 73.31 and 95.9148 and 84.3134
- agonist response (Fig 2f), individual replicate values (hPAR2 [5]; [compound],M -4.52288): 92.9579 and 90.0884 and 64.3276 and 56.5062 and 77.8703 and 74.4284
- agonist response (Fig 2f), individual replicate values (hPAR2 [5]; [compound],M -5): 55.0604 and 54.5545 and 55.8646 and 38.6159 and 58.5041 and 56.712
- agonist response (Fig 2f), individual replicate values (hPAR2 [5]; [compound],M -5.47712): 26.8191 and 21.9568 and 32.045 and 20.5609 and 38.941 and 38.2123
- agonist response (Fig 2f), individual replicate values (hPAR2 [5]; [compound],M -5.95424): 3.59 and 16.887 and 24.5009 and 9.51 and 14.8748 and 18.3177
- agonist response (Fig 2f), individual replicate values (hPAR2 [5]; [compound],M -6.43136): -3.351 and 12.8282 and 7.2581 and 5.779 and 4.6 and 10.8974
- agonist response (Fig 2f), individual replicate values (hPAR2 [5]; [compound],M -6.90849): 4.102 and 7.728 and 1.445 and -0.0221 and 3.388 and 8.399
- agonist response (Fig 2f), individual replicate values (hPAR2 [5]; [compound],M -7.38561): 1.29 and 11.1269 and 3.313 and 3.3558 and 1.549 and 0.5881
- agonist response (Fig 2f), individual replicate values (hPAR2 [5]; [compound],M -7.86273): -1.101 and 4.782 and 4.705 and 0.01875 and -2.103 and 4.2334
- agonist response (Fig 2f), individual replicate values (hPAR2 [5]; [compound],M -8.33985): -5.551 and 2.218 and -0.6869 and -0.9848 and 0.2659 and 2.337
- EC50 (hPAR2 [6]): 1.26 µM
- Ca2+ response (Fig 2c), individual replicate values (hPAR2 [6]; [compound],M -3.69897): 103.767 and 118.778 and 97.8658 and 87.8393
- Ca2+ response (Fig 2c), individual replicate values (hPAR2 [6]; [compound],M -4.17609): 56.3274 and 105.715 and 98.496 and 100.501
- Ca2+ response (Fig 2c), individual replicate values (hPAR2 [6]; [compound],M -4.65321): 93.626 and 84.0006 and 100.043 and 97.9804
- Ca2+ response (Fig 2c), individual replicate values (hPAR2 [6]; [compound],M -5.13033): 68.0728 and 71.1667 and 73.1719 and 72.2553
- Ca2+ response (Fig 2c), individual replicate values (hPAR2 [6]; [compound],M -5.60746): 41.6601 and 53.119 and 63.0309 and 60.338
- Ca2+ response (Fig 2c), individual replicate values (hPAR2 [6]; [compound],M -6.08458): 28.1959 and 44.9832 and 36.0453 and 35.9307
- Ca2+ response (Fig 2c), individual replicate values (hPAR2 [6]; [compound],M -6.5617): 11.2941 and 18.1695 and 18.1121 and 22.4665
- Ca2+ response (Fig 2c), individual replicate values (hPAR2 [6]; [compound],M -7.03882): 4.705 and 12.8411 and -0.8522 and 3.559
- Ca2+ response (Fig 2c), individual replicate values (hPAR2 [6]; [compound],M -7.51594): -1.139 and 5.679 and 1.6687 and -1.54
- Ca2+ response (Fig 2c), individual replicate values (hPAR2 [6]; [compound],M -7.99306): -2.17 and 3.044 and 0.4082 and -4.863
- EC50 (hPAR2 [7]): 10 µM
- agonist response (Fig 2e), individual replicate values (hPAR2 [7]; [compound],M -4.04576): 99.6308 and 91.4672 and 59.9255 and 93.3534 and 82.1422 and 106.727 and 95.3302 and 107.361
- agonist response (Fig 2e), individual replicate values (hPAR2 [7]; [compound],M -4.52288): 97.6379 and 75.0545 and 42.279 and 78.3436 and 72.4641 and 77.8082 and 83.5277 and 91.4836
- agonist response (Fig 2e), individual replicate values (hPAR2 [7]; [compound],M -5): 31.7126 and 38.7964 and 29.9003 and 52.5593 and 35.7079 and 56.5471 and 40.6895 and 78.4826
- agonist response (Fig 2e), individual replicate values (hPAR2 [7]; [compound],M -5.47712): -6.206 and 24.6437 and 9.489 and 50.4555 and 3.733 and 21.3761 and 7.93 and 32.2657
- agonist response (Fig 2e), individual replicate values (hPAR2 [7]; [compound],M -5.95424): -12.6824 and 18.9444 and 7.502 and 22.8061 and -1.381 and 9.052 and -3.256 and 12.5644
- agonist response (Fig 2e), individual replicate values (hPAR2 [7]; [compound],M -6.43136): -23.75 and 16.3682 and -5.093 and 16.2671 and -4.436 and 12.7209 and -3.872 and 14.813
- agonist response (Fig 2e), individual replicate values (hPAR2 [7]; [compound],M -6.90849): 15.5205 and 19.768 and 3.339 and 15.6565 and 2.966 and 12.1455 and -0.4138 and 11.0577
- agonist response (Fig 2e), individual replicate values (hPAR2 [7]; [compound],M -7.38561): -7.931 and 10.0627 and -5.815 and 6.181 and -11.0844 and 9.039 and -0.4366 and 14.6989
- agonist response (Fig 2e), individual replicate values (hPAR2 [7]; [compound],M -7.86273): -16.2411 and 11.2751 and -1.735 and 6.359 and -8.732 and 10.0488 and 1.766 and 13.489
- agonist response (Fig 2e), individual replicate values (hPAR2 [7]; [compound],M -8.33985): -5.583 and 13.904 and -4.7322 and 9.728 and -8.195 and 13.5647 and -0.3681 and 7.371

B1: SLIGKV-NH2 (peptide)
peptide: SLIGKV-NH2
notes: also called human tethered ligand peptide; source: synthetic peptide, custom synthesised by ThermoFisher Scientific
- pKi [8]: 6.33 pKi
